11 compounds from patent publication US7928103B2, “Compounds which modulate the CB2 receptor” (Boehringer Ingelheim International GmbH, priority 2006, dated 2011) can be followed below.

Assay [1] deals with T1, human CB2R (Homo sapiens, UniProt P34972). In words: Human CB2 receptor binding (3H-CP55940 competition, SPA). Also on record: purchased Perkin Elmer Life and Analytical Sciences; host or cells: HEK293 EBNA cells, stably transfected. As to conditions: through the use of the above described assays (CB1/CB2 binding, CB2R and CB1R cAMP); assay not specified further. The method, then: A. Human CB1 and CB2 Receptor Binding:
CB2 membranes were purchased and made from HEK293 EBNA cells stably transfected with human CB2 receptor cDNA (Perkin Elmer Life and Analytical Sciences). CB1 membranes were isolated from HEK cells stably co-transfected with human CB1 receptor and Gα16 cDNA's. The membrane preparation was bound to scintillation beads (Ysi-Poly-L-lysine SPA beads, GE Healthcare) for 4 hours at room temperature in assay buffer containing 50 mM Tris, pH 7.5, 2.5 mM EDTA, 5 mM MgCl2, 0.8% fatty acid free Bovine Serum Albumin. Unbound membrane was removed by washing in assay buffer. Membrane-bead mixture was added to 96-well assay plates in the amounts of 15 ug membrane per well (CB2) or 2.5 ug per well (CB1) and 1 mg SPA bead per well. Compounds were added to the membrane-bead mixture in dose-response concentrations ranging from 1×10^−5 M to 1×10^−10 M with 0.25% DMSO, final. The competition reaction was initiated with the addition of ^3H-CP55940 (Perkin Elmer Life and Analytical Sciences) at a final concentration of 1.5 nM (CB2) or 2.5 nM (CB1). The reaction was incubated at room temperature for 18 hours and read on TopCount NXT plate reader. Total and non-specific binding was determined in the absence and presence of 1.25 uM Win 55212 (Sigma). IC50 values for each compound were calculated as the concentration of compound that inhibits the specific binding of the radioactively labeled ligand to the receptor by 50% using the XLFit 4.1 four parameter logistic model. IC50 values were converted to inhibition constant (Ki) values using Cheng-Prusoff equation.

The target of assay [2] is T1, human CB2R. In words: CB2R mediated modulation of cAMP synthesis. In kind it is cell-based. The note with it: agonists decrease forskolin induced production of cAMP; CHO cells expressing human CB2R. More on the design: host or cells: CHO cells. The procedure: B. CB2R Mediated Modulation of cAMP Synthesis:
Compounds of the invention were evaluated for their CB2 agonist or inverse agonistic activity in accordance with the following experimental method.
CHO cells expressing human CB2R (Euroscreen) were plated at a density of 5000 cells per well in 384 well plates and incubated overnight at 37° C. After removing the media, the cells were treated with test compounds diluted in stimulation buffer containing 1 mM IBMX, 0.25% BSA and 10 uM Forskolin. The assay was incubated for 30 minutes at 37° C. Cells were lysed and the cAMP concentration was measured using DiscoverX-XS cAMP kit, following the manufacturer's protocol. In this setting, agonists will decrease forskolin induced production of cAMP while inverse agonists will further increase forskolin induced production of cAMP. EC50 of agonists were calculated as follows. The maximal amount of cAMP produced by forskolin compared to the level of cAMP inhibited by 1 uM CP55940 is defined as 100%. The EC50 value of each test compound was determined as the concentration at which 50% of the forskolin-stimulated cAMP synthesis was inhibited. Data was analyzed using a four-parameter logistic model. (Model 205 of XLfit 4.0).

T1 sequence (P34972 whole entry): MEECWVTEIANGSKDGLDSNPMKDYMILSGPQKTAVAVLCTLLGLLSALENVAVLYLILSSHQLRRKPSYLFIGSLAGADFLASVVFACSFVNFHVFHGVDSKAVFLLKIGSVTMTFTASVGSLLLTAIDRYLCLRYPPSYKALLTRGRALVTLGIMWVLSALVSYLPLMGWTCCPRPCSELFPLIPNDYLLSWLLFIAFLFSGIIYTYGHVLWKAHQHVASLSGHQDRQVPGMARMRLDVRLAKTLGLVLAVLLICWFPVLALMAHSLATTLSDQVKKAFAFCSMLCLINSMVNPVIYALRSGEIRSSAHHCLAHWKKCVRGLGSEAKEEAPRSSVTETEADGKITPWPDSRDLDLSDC

For the compound `Cc1ccccc1Nc1ccc(CN2CCO[C@@H](c3ccccc3)C2)cn1` [Example 24, [5-((S)-2-Phenyl-morpholin-4-ylmethyl)-pyridin-2-yl]-o-tolyl-amine], the “found to exhibit activity” value at human CB2R [1] is recorded as “exhibit activity”. The “found to exhibit agonistic activity” value at human CB2R [2] was “exhibit agonistic activity”.

Consider `Fc1cccc(Nc2ccc(CN3CCO[C@@H](c4ccccc4)C3)cn2)c1` [Example 25, (3-Fluoro-phenyl)-[5-((S)-2-phenyl-morpholin-4-ylmethyl)-pyridin-2-yl]-amine], for which the “found to exhibit activity” value at human CB2R [1] was “exhibit activity”. For the same compound, the “found to exhibit agonistic activity” value on human CB2R [2] is recorded as “exhibit agonistic activity”.

Take `Clc1cccc(Nc2ccc(CN3CCO[C@@H](c4ccccc4)C3)cn2)c1` [Example 26, (3-Chloro-phenyl)-[5-((S)-2-phenyl-morpholin-4-ylmethyl)-pyridin-2-yl]-amine]: on human CB2R [1], the “found to exhibit activity” value was “exhibit activity”. Moreover, the “found to exhibit agonistic activity” value at human CB2R [2] was “exhibit agonistic activity”.

On to `Clc1ccc(Nc2ccc(CN3CCO[C@@H](c4ccccc4)C3)cn2)cc1Cl` [Example 27, (3,4-Dichloro-phenyl)-[5-((S)-2-phenyl-morpholin-4-ylmethyl)-pyridin-2-yl]-amine], for which the “found to exhibit activity” value at human CB2R [1] is reported as “exhibit activity”. Moreover, the “found to exhibit agonistic activity” value at human CB2R [2] is reported as “exhibit agonistic activity”.

On to `Cc1cccc(Nc2ccc(CN3CCO[C@@H](c4ccccc4)C3)cn2)c1` [Example 28, [5-((S)-2-Phenyl-morpholin-4-ylmethyl)-pyridin-2-yl]-m-tolyl-amine], for which, at human CB2R [1], the “found to exhibit activity” value is given as “exhibit activity”. For the same compound, the “found to exhibit agonistic activity” value on human CB2R [2] is “exhibit agonistic activity”.

`Fc1ccc(Nc2ccc(CN3CCO[C@@H](c4ccccc4)C3)cn2)cc1` [Example 29, (4-Fluoro-phenyl)-[5-((S)-2-phenyl-morpholin-4-ylmethyl)-pyridin-2-yl]-amine]: at human CB2R [1], the “found to exhibit activity” value is “exhibit activity”. Also, the “found to exhibit agonistic activity” value at human CB2R [2] is recorded as “exhibit agonistic activity”.

For the compound `Clc1ccc(Nc2ccc(CN3CCO[C@@H](c4ccccc4)C3)cn2)cc1` [Example 30, (4-Chloro-phenyl)-[5-((S)-2-phenyl-morpholin-4-ylmethyl)-pyridin-2-yl]-amine], on human CB2R [1], the “found to exhibit activity” value is “exhibit activity”. Further, the “found to exhibit agonistic activity” value on human CB2R [2] is given as “exhibit agonistic activity”.

As to `Cc1ccc(Nc2ccc(CN3CCO[C@@H](c4ccccc4)C3)cn2)cc1` [Example 31, [5-((S)-2-Phenyl-morpholin-4-ylmethyl)-pyridin-2-yl]-p-tolyl-amine], the “found to exhibit activity” value at human CB2R [1] is given as “exhibit activity”. For the same compound, the “found to exhibit agonistic activity” value at human CB2R [2] is reported as “exhibit agonistic activity”.

Turning to `FC(F)(F)Oc1ccccc1Nc1ccc(CN2CCO[C@@H](c3ccccc3)C2)cn1` [Example 32, [5-((S)-2-Phenyl-morpholin-4-ylmethyl)-pyridin-2-yl]-(2-trifluoromethoxy-phenyl)-amine], the “found to exhibit activity” value on human CB2R [1] is on record as “exhibit activity”. In addition, the “found to exhibit agonistic activity” value at human CB2R [2] is reported as “exhibit agonistic activity”.

Regarding `c1ccc([C@H]2CN(Cc3ccc(Nc4cc5ccccc5cn4)nc3)CCO2)cc1` [Example 33, Isoquinolin-3-yl-[5-((S)-2-phenyl-morpholin-4-ylmethyl)-pyridin-2-yl]-amine], the “found to exhibit activity” value on human CB2R [1] is given as “exhibit activity”. The “found to exhibit agonistic activity” value at human CB2R [2] is on record as “exhibit agonistic activity”.

`c1ccc(Oc2ccc(CN3CCO[C@@H](c4ccccc4)C3)cc2)cc1` [Example 34, (S)-4-(4-Phenoxy-benzyl)-2-phenyl-morpholine]: the “found to exhibit activity” value on human CB2R [1] is given as “exhibit activity”. Further, the “found to exhibit agonistic activity” value on human CB2R [2] was “exhibit agonistic activity”.
